Source: patent US9422238B2, “ICMT inhibitors” (National University of Singapore, priority 2012, dated 2016)
Read-outs that look alike come from different tables or passages of the source.

Assays:
[1] = system: HepG2, MIA PACA II, MDA-MB-231 and PC3 cells; experiment: Cell viability on panel of 4 malignant cell lines; assay type: cell-based; details: Homo sapiens, MDA-MB-231, PC3, read-out: IC50 values, range over the malignant cell lines
Procedure: Determinations were made in duplicates or triplicates.
Cell viability was determined from the expression:
(§1) Human hepatocellular carcinoma HepG2 and human pancreatic cancer MIA PACA II cells were obtained from ATCC (Rockville, Md.). They were grown in DMEM (high glucose, Invitrogen) supplemented with 10% FBS, 50 μg/mL penicillin and 50 μg/mL streptomycin, 37° C., 5% CO2 until they reached 80-90% confluency, after which they were subcultured. Passage numbers were kept within 7-14 passages for both cell types.

[2] = system: human pancreatic cancer MIA PACA II cells; experiment: Cell viability (MTS); assay type: cell-based; details: MIA PaCa-2, Table 6, N = 2
Procedure: as §1

PC3 cells [3] = experiment: Immunofluorescence analysis of LC3 aggregation; assay type: cell-based, human; details: PC3, 48 h
Procedure: Cover slips were placed into the base of each well in a 24-well plate. PC3 cells were seeded at 10 000 cells/mL per well in media (DMEM Hi-glucose, 10% FBS, 50 μg/mL penicillin, 50 μg/mL streptomycin) and incubated for 24 h. After this time, cells were attached as a layer onto the exposed face of the cover slip. The media was carefully removed from the well without disrupting the cell layer on the cover slip. Test compound in DMEM (high glucose, 5% FBS) was added and incubated for 24 h or 48 h. DMSO concentration was kept at 0.05% per well, including control wells. At the end of the incubation period, media was removed, wells were washed thrice with PBS, followed by addition of chilled PBST (200 μL) per well for 10 minutes to permeabilize the cells. Cells were then fixed with 4% paraformaldehyde (300 μL), incubated for 15 minutes, and washed with cold PBS (3 times) to remove the fixing solution. To the cell layer fixed on the cover slip in the well was added 100 μL of anti-LC3 in PBST (1:1000). The plates were kept at 4° C. overnight after which each well was washed 3× with cold PBS. Rhodamine Red-X® secondary antibody (Jackson Immunoresearch Laboratories, West Grove, Pa.) was added, incubated (2 h, 25° C.) and removed by washing with PBS (3 times). The cover slips were carefully removed from the wells and mounted onto glass slides and sealed with nail polish. […]

PC3 cells [4] = experiment: Cell cycle analysis by flow cytometry; assay type: cell-based, human; details: PC3, 48 h
Procedure: PC3 cells were seeded at 100 000 cells/mL per well in 6-well plates with media DMEM (high glucose, 10% FBS, 50 μg/mL penicillin, 50 μg/mL streptomycin) and incubated (24 h, 37° C., 5% CO2) to allow cell attachment after which they were treated with test compound (in DMEM, high glucose, 5% FBS, 50 μg/mL penicillin, 50 μg/mL streptomycin) for 48 h. Final volume of DMSO per well was 0.05% v/v. Control wells (without test compound) were similarly treated. After the specified time, supernatant in the well was collected; the cell pellet was trypsinized, combined with the supernatant and pelleted by centrifugation (150 g, 5 min). After rinsing the pellet twice with ice-cold 1×PBS, the cells were suspended in 0.3 mL PBS, to which was added dropwise and with gentle shaking, cold ethanol (0.7 mL) to give a final concentration of 70% ethanol. The cell sample was then kept at 4° C. overnight after which it was centrifuged (150 g, 5 min), the supernatant was removed, the pellet rinsed with cold PBS and re-suspended in a solution of 100 μg/mL propidium iodide (PI, Sigma Aldrich, Singapore) and 0.1 mg/mL ribonuclease A (Sigma Aldrich, Singapore) in PBS (500 μL). The suspension was kept in the dark for 1 h, 25° C. (room temperature) before being analyzed for distribution in the G1,S, G2/M phases on a FCS500 flow cytometer (Beckman Coulter, CA) using the FlowJo® software (http: http://www.flowjo.com/) Each test compound was evaluated at 4 concentrations with 2 repeats per concentration.

[5] = Pharmacokinetic study, IP; assay type: in vivo, mice; details: for detection in plasma at late time points: IP; for half-life / AUC / Tmax / Cmax: female, mouse, plasma; for half-life: Balb/c
Icmt = Icmt (Homo sapiens, UniProt O60725); details: background, cited from earlier work
[6] = Balb/c mice, 20 mg/kg IP, 20 mg/kg

Chain of Icmt (O60725 whole entry, species assumed): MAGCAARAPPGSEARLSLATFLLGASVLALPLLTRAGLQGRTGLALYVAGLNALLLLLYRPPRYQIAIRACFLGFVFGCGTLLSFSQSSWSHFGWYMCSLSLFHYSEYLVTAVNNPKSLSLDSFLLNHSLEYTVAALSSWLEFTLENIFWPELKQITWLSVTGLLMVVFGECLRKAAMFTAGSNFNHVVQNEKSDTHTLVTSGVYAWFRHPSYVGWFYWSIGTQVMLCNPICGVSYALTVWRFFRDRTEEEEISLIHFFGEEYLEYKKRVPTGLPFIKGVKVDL

CCCCCCCCn1cc(CN(CC)CC)c2cc(-c3cnc(N)nc3)ccc21 [Compound 8-12, 5-(3-Diethylaminomethyl-1-octyl-1H-indol-5-yl)-pyrimidin-2-ylamine]
IC50 [1]: 1600 to 2600 nM | IC50 [2]: 1.6 µM | LC3 aggregation (immunofluorescence) (PC3 cells [3]): punctate LC3-positive (red) vacuoles were observed at 2.5 and 5 μM | effect on cell cycle distribution (PC3 cells [4]): increased cells in the G1 phase while decreasing cells in G2 phase | % Cells in G1 phase (PC3 cells [4]; 0.8 μM): 52.92 (2) % | % Cells in G2 phase (PC3 cells [4]; 0.8 μM): 24.22 (2) % | % Cells in G1 phase (PC3 cells [4]; 1.0 μM): 59.98 (2)^3% | % Cells in G2 phase (PC3 cells [4]; 1.0 μM): 26.99 (2.77, 3) % | % Cells in G1 phase (PC3 cells [4]; 2.0 μM): 66.45 (2)^3% | % Cells in G2 phase (PC3 cells [4]; 2.0 μM): 11.20 (2)^3% | time to peak concentration in plasma ([5]; 10 mg/kg or 25 mg/kg IP): within an hour | Clearance ([5]; Balb/c mice, 10 mg/kg IP): 6.67 mL/min/kg | Clearance ([5]; Balb/c mice, 25 mg/kg IP): 10.1 mL/min/kg | Volume of Distribution ([5]; Balb/c mice, 25 mg/kg IP): 1.185 L/kg | detection in plasma at late time points ([5]; Balb/c mice): not detected after 24 h and 48 h | half-life ([5]; intraperitoneal, summary, treated mice, read-out: half life): < 1 h | half-life ([5]; ip, 10 mg/kg or 25 mg/kg IP, estimated, read-out: half life): < 3 h | half-life ([5]; ip, 10 mg/kg, Balb/c mice, 10 mg/kg IP, read-out: T1/2 (converted)): 1.25 h | half-life ([5]; ip, 25 mg/kg, Balb/c mice, 25 mg/kg IP, read-out: T1/2 (converted)): 1.36 h | AUC ([5]; Balb/c mice, 10 mg/kg IP): 24.6 µg·h/mL | Tmax ([5]; Balb/c mice, 10 mg/kg IP): 0.25 h | AUC ([5]; Balb/c mice, 25 mg/kg IP): 40.8 µg·h/mL | Tmax ([5]; Balb/c mice, 25 mg/kg IP): 0.75 h | Cmax ([5]; Balb/c mice, 10 mg/kg IP): 17.9 µg/mL | Cmax ([5]; Balb/c mice, 25 mg/kg IP): 17.4 µg/mL

CCCCCCCCn1cc(CC(N)=O)c2cc(-c3cccc(C)c3)ccc21 [Cysmethynil, 2-[5-(3-methylphenyl)-1-octyl-1H-indolo-3-yl]acetamide, reference compound]
IC50 [2]: 22.5 µM | Ki (Icmt; read-out: Ki of initial reversible complex with the enzyme): 2390 nM | Ki (Icmt; time dependent inhibition, read-out: overall dissociation constant of EI* complex): 110 nM | effect on cell cycle distribution (PC3 cells [4]): the changes in G1/G2 cell populations were not statistically significant | % Cells in G1 phase (PC3 cells [4]; 12.5 μM): 53.0 (2) % | % Cells in G2 phase (PC3 cells [4]; 12.5 μM): 27.87 (2) % | % Cells in G1 phase (PC3 cells [4]; 17.5 μM): 51.83 (2) % | % Cells in G2 phase (PC3 cells [4]; 17.5 μM): 26.85 (12.28, 3) % | % Cells in G1 phase (PC3 cells [4]; 20.0 μM): 54.85 ( 2) % | % Cells in G2 phase (PC3 cells [4]; 20.0 μM): 32.07 (2) % | Clearance ([5]; Balb/c mice, 20 mg/kg IP): 0.395 mL/min/kg | T1/2 [5, 6]: 1.55 h | Volume of Distribution [5, 6]: 0.0529 L/kg | Volume of Distribution ([5]; Balb/c mice, 20 mg/kg IP, listed as cysmethynil, 20 mg/kg): 0.053 L/kg | Clearance ([5]; Balb/c mice, 100 mg/kg IP): 0.217 mL/min/kg | Volume of Distribution ([5]; Balb/c mice, 100 mg/kg IP): 0.0799 L/kg | detection in plasma at late time points ([5]; Balb/c mice): could not be detected in plasma beyond this time | half-life ([5]; ip, 20 mg/kg, Balb/c mice, 20 mg/kg IP, read-out: T1/2 (converted)): 1.6 h | half-life ([5]; ip, 100 mg/kg, Balb/c mice, 100 mg/kg IP, read-out: T1/2 (converted)): 4.3 h | AUC ([5]; Balb/c mice, 20 mg/kg IP): 843 µg·h/mL | Tmax ([5]; Balb/c mice, 20 mg/kg IP): 0.75 h | AUC ([5]; Balb/c mice, 100 mg/kg IP): 7690 µg·h/mL | Tmax ([5]; Balb/c mice, 100 mg/kg IP): 0.75 h | Cmax ([5]; Balb/c mice, 20 mg/kg IP): 210 µg/mL | Cmax ([5]; Balb/c mice, 100 mg/kg IP): 1160 µg/mL
